Patent US10376520B2, “Methods for the treatment of cardiovascular disorders” (Galapagos NV, priority 2015, dated 2019)

Test system: RA patients
Test: Atherogenic index, Study 1 (RA patients, add-on to MTX)
Format: in vivo, human
Conditions: for Atherogenic index Mean percentage CFB - 12 weeks results / Atherogenic index Median CFB - 12 weeks results / Atherogenic index Mean CFB: 2 × 100 mg (b.i.d. group); for atherogenic index variation, decrease compared to pre-treatment baseline: Study 1, after 12 weeks treatment
Protocol: As used herein, the term ‘atherogenic index’ refers to
Double-blind, placebo-controlled add on study in subjects with moderately to severely active RA who have an inadequate response to methotrexate (MTX) (oral or parenteral).
Compound 1 (dosed as a [Compound 1:HCl:3H2O]) is dosed for twelve weeks once daily (q.d.) (50 mg, 100 mg or 200 mg) or twice daily (b.i.d.) (25 mg, 50 mg or 100 mg); or placebo.
At Week 12, the subjects on placebo who have not achieved 20% improvement in swollen joint count (SJC66) and tender joint count (TJC68) are re-randomized automatically to receive Compound 1 (dosed as a [Compound 1:HCl:3H2O]) either at 100 mg q.d. or 50 mg b.i.d. doses in a blinded fashion; subjects on 50 mg q.d. who have not achieved 20% improvement in SJC66 and TJC68 will be assigned to 100 mg q.d. and subjects on 25 mg b.i.d. that have not achieved a 20% improvement in SJC66 and TJC68 will be assigned to 50 mg b.i.d. Subjects who switch treatment at week 12 are handled as if they discontinued at week 12 for the purpose of statistical analysis, whereas subjects in the other groups will maintain their randomized treatment until Week 24.
The atherogenic index has been identified to be a good predictor of cardiovascular disorders risks and is calculated as follows: […]

[1] = increased from 25 mg b.i.d. to 50 mg b.i.d at 12 weeks, week 1
[2] = increased from 25 mg b.i.d. to 50 mg b.i.d at 12 weeks, week 2
[3] = increased from 25 mg b.i.d. to 50 mg b.i.d at 12 weeks, week 4
[4] = increased from 25 mg b.i.d. to 50 mg b.i.d at 12 weeks, week 8
[5] = increased from 25 mg b.i.d. to 50 mg b.i.d at 12 weeks, week 12
[6] = increased from 25 mg b.i.d. to 50 mg b.i.d at 12 weeks, week 16
[7] = increased from 25 mg b.i.d. to 50 mg b.i.d at 12 weeks, week 20
[8] = increased from 25 mg b.i.d. to 50 mg b.i.d at 12 weeks, week 24
[9] = increased from 50 mg q.d. to 100 mg q.d. at 12 weeks, week 1
[10] = increased from 50 mg q.d. to 100 mg q.d. at 12 weeks, week 2
[11] = increased from 50 mg q.d. to 100 mg q.d. at 12 weeks, week 4
[12] = increased from 50 mg q.d. to 100 mg q.d. at 12 weeks, week 8
[13] = increased from 50 mg q.d. to 100 mg q.d. at 12 weeks, week 12
[14] = increased from 50 mg q.d. to 100 mg q.d. at 12 weeks, week 16
[15] = increased from 50 mg q.d. to 100 mg q.d. at 12 weeks, week 20
[16] = increased from 50 mg q.d. to 100 mg q.d. at 12 weeks, week 24
[17] = placebo switched to 50 mg b.i.d at week 12, week 16
[18] = placebo switched to 50 mg b.i.d at week 12, week 20
[19] = placebo switched to 50 mg b.i.d at week 12, week 24
[20] = placebo switched to 100 mg q.d. at week 12, week 16
[21] = placebo switched to 100 mg q.d. at week 12, week 20
[22] = placebo switched to 100 mg q.d. at week 12, week 24

O=C(Nc1nc2cccc(-c3ccc(CN4CCS(=O)(=O)CC4)cc3)n2n1)C1CC1 [Compound 1, cyclopropanecarboxylic acid {5-[4-(1,1-dioxo-thiomorpholin-4-ylmethyl)-phenyl]-[1,2,4]triazolo[1,5-a]pyridin-2yl}-amide]
Atherogenic index Mean percentage CFB - 12 weeks results (week 2): −5% | Atherogenic index Median CFB - 12 weeks results (week 2): -0.20 mmol/L | Atherogenic index Mean CFB (week 4): -0.30 mmol/L | Atherogenic index Mean percentage CFB - 12 weeks results (week 4): −7% | Atherogenic index Median CFB - 12 weeks results (week 4): -0.30 mmol/L | Atherogenic index Mean CFB (week 8): -0.18 mmol/L | Atherogenic index Mean percentage CFB - 12 weeks results (week 8): −4% | Atherogenic index Median CFB - 12 weeks results (week 8): -0.20 mmol/L | Atherogenic index Mean CFB (week 12): -0.24 mmol/L | Atherogenic index Mean percentage CFB - 12 weeks results (week 12): −5% | Atherogenic index Median CFB - 12 weeks results (week 12): -0.10 mmol/L | atherogenic index variation, decrease compared to pre-treatment baseline (100 mg/bid dose): 0.2 fold | atherogenic index variation, decrease compared to pre-treatment baseline (200 mg q.d.): 0.35 fold | Atherogenic index Mean CFB - 24 weeks results [1]: 0.05 mmol/L | Atherogenic index Mean percentage CFB - 24 weeks results [1]: 3.56% | Atherogenic index Median CFB - 24 weeks results [1]: -0.10 mmol/L | Atherogenic index Mean CFB - 24 weeks results [2]: -0.11 mmol/L | Atherogenic index Mean percentage CFB - 24 weeks results [2]: −1.15% | Atherogenic index Median CFB - 24 weeks results [2]: -0.20 mmol/L | Atherogenic index Mean CFB - 24 weeks results [3]: -0.15 mmol/L | Atherogenic index Mean percentage CFB - 24 weeks results [3]: −3.02% | Atherogenic index Median CFB - 24 weeks results [3]: -0.10 mmol/L | Atherogenic index Mean CFB - 24 weeks results [4]: -0.17 mmol/L | Atherogenic index Mean percentage CFB - 24 weeks results [4]: −3.11% | Atherogenic index Median CFB - 24 weeks results [4]: -0.10 mmol/L | Atherogenic index Mean CFB - 24 weeks results [5]: -0.19 mmol/L | Atherogenic index Mean percentage CFB - 24 weeks results [5]: −2.58% | Atherogenic index Median CFB - 24 weeks results [5]: -0.30 mmol/L | Atherogenic index Mean CFB - 24 weeks results [6]: -0.10 mmol/L | Atherogenic index Mean percentage CFB - 24 weeks results [6]: −0.03% | Atherogenic index Mean CFB - 24 weeks results [7]: -0.26 mmol/L | Atherogenic index Mean percentage CFB - 24 weeks results [7]: −4.14% | Atherogenic index Mean CFB - 24 weeks results [8]: -0.24 mmol/L | Atherogenic index Mean percentage CFB - 24 weeks results [8]: −4.89% | Atherogenic index Median CFB - 24 weeks results [8]: -0.30 mmol/L | Atherogenic index Mean CFB - 24 weeks results [9]: -0.03 mmol/L | Atherogenic index Mean percentage CFB - 24 weeks results [9]: 0.53% | Atherogenic index Median CFB - 24 weeks results [9]: 0.00 mmol/L | Atherogenic index Mean CFB - 24 weeks results [10]: -0.06 mmol/L | Atherogenic index Mean percentage CFB - 24 weeks results [10]: −0.94% | Atherogenic index Median CFB - 24 weeks results [10]: 0.10 mmol/L | Atherogenic index Mean CFB - 24 weeks results [11]: -0.11 mmol/L | Atherogenic index Mean percentage CFB - 24 weeks results [11]: −1.77% | Atherogenic index Median CFB - 24 weeks results [11]: -0.10 mmol/L | Atherogenic index Mean CFB - 24 weeks results [12]: -0.13 mmol/L | Atherogenic index Mean percentage CFB - 24 weeks results [12]: −1.35% | Atherogenic index Median CFB - 24 weeks results [12]: -0.10 mmol/L | Atherogenic index Mean CFB - 24 weeks results [13]: 0.02 mmol/L | Atherogenic index Mean percentage CFB - 24 weeks results [13]: 2.72% | Atherogenic index Median CFB - 24 weeks results [13]: 0.20 mmol/L | Atherogenic index Mean CFB - 24 weeks results [14]: -0.05 mmol/L | Atherogenic index Mean percentage CFB - 24 weeks results [14]: −0.95% | Atherogenic index Median CFB - 24 weeks results [14]: -0.10 mmol/L | Atherogenic index Mean CFB - 24 weeks results [15]: 0.02 mmol/L | Atherogenic index Mean percentage CFB - 24 weeks results [15]: −0.01% | Atherogenic index Median CFB - 24 weeks results [15]: 0.00 mmol/L | Atherogenic index Mean CFB - 24 weeks results [16]: -0.12 mmol/L | Atherogenic index Mean percentage CFB - 24 weeks results [16]: −2.40% | Atherogenic index Median CFB - 24 weeks results [16]: 0.00 mmol/L | Atherogenic index Mean CFB - 24 weeks results [17]: -0.47 mmol/L | Atherogenic index Mean percentage CFB - 24 weeks results [17]: −4.74% | Atherogenic index Median CFB - 24 weeks results [17]: -0.10 mmol/L | Atherogenic index Mean CFB - 24 weeks results [18]: -0.39 mmol/L | Atherogenic index Mean percentage CFB - 24 weeks results [18]: −6.13% | Atherogenic index Median CFB - 24 weeks results [18]: -0.20 mmol/L | Atherogenic index Mean CFB - 24 weeks results [19]: -0.45 mmol/L | Atherogenic index Mean percentage CFB - 24 weeks results [19]: −8.32% | Atherogenic index Median CFB - 24 weeks results [19]: -0.30 mmol/L | Atherogenic index Mean CFB - 24 weeks results [20]: -0.07 mmol/L | Atherogenic index Mean percentage CFB - 24 weeks results [20]: −0.54% | Atherogenic index Mean CFB - 24 weeks results [21]: -0.12 mmol/L | Atherogenic index Mean percentage CFB - 24 weeks results [21]: −1.77% | Atherogenic index Mean CFB - 24 weeks results [22]: -0.12 mmol/L | Atherogenic index Mean percentage CFB - 24 weeks results [22]: −3.43%
